For two compounds, melting point results are on record in patent US20030225127A1, “Heterocyclic sulfonamide derivatives” (priority 2003, published 2003).

The structures appear in SMILES notation.

Turning to `CC(CNS(=O)(=O)C(C)C)c1ccc(-c2ccc3c(c2)CC(=O)N3)cc1` (centres unmarked) [Example 3, 5-[4-(1-methyl-2-{[(methylethyl)sulfonyl]amino}ethyl)phenyl]indolin-2-one], the melting point (in general, the temperature of the solid-liquid transition) was 170 to 171 °C. Consider `CC(C)S(=O)(=O)NC[C@H](C)c1ccc(-c2ccc3c(c2)CC(=O)N3)cc1` [Example 4, 5-[4-((1R)-1-methyl-2-{[(methylethyl)sulfonyl]amino}ethyl)phenyl]indolin-2-one], for which the melting point fell in the range of 184 to 185 °C.
